In patent US20070292876A1, “METHODS FOR IDENTIFICATION OF COMPOUNDS THAT MIMIC THE SENESCENCE-INDUCING ACTIVITY OF RETINOIC ACID RECEPTOR LIGANDS” (Ordway Research Institute, Inc., priority 2006, published 2007):
Entries after “also recorded” stand apart in the source; their conditions may differ.

Columns and labels:
Assay type in all cases: cell-based, human
[1] = system: MCF-7 cells; assay: Effect on MCF-7 cell growth (cell number after 7 days exposure); details: LGD1550 100 nM, LG100815 10 μM, LGD1268 100 nM, LG101208 10 μM
Protocol: The bars represent cell number after 7 days of culture with the addition of DMSO (control), 100 nM RA, 100 nM RAR agonist LGD1550, 100 nM RXR agonist LGD1268, 10 μM RAR antagonist LG100815, and 10 μM RXR antagonist LG101208. Experiments were done in triplicate, and the results are expressed relative to the average of the control.
(§1) MCF-7 cells were plated at 5×10^5 per P100, and exposed on the next day to DMSO carrier, RA (100 nM), pan-RAR-specific ligands, LGD1550 (100 nM) and LG100815 (10 μM), pan-RXR specific agonist LGD1268, pan-RXR-specific antagonist LG101208, or drug-free DMSO carrier (control). The latter four compounds were provided by Ligand Pharmaceuticals, Inc. The effects of RAR ligands on the growth of MCF-7 cells were determined, as measured by the cell number after 7 days exposure to the compounds (FIG. 1) and on the fraction of cells expressing the senescence-associated β-galactosidase activity (SA-β-gal), a marker of senescence, after 7-day treatment with the compounds (FIG. 2).

[2] = system: MCF-7 cells; assay: Senescence-associated β-galactosidase (SA-β-gal) positive fraction of MCF-7 cells; details: 7-day treatment; same concentrations as for cell growth
Protocol: The bars represent percentages of SA-P-gal+cells after 8 days of treatment with the indicated compounds (in triplicate). The compounds were used at the same concentrations as in FIG. 1.
as §1

[3] = system: MDA-MB-231 cells; assay: Coculture of GFP-expressing MDA-MB-231 cells with RA-treated MCF-7 cells, MDA-MB-231 cell number by FACS
Protocol: Each bar represents MDA-MB-231 cell number after five days of culture relative to cell number in the absence of MCF-7 or RA. Mean and standard deviation were calculated from three independent experiments. • (b) MDA-MB-231 cells (GFP-expressing) were plated as 1:1 mixtures with MCF-7 cells that were either untreated or treated for eight days with 100 nM, and grown in the presence of DMSO carrier or 100 nM RA. Each bar represents MDA-MB-231 cell relative to MDA-MB-231 cell number in coculture with untreated MCF-7 without RA. Mean and standard deviation were calculated from three independent experiments.
Since retinoid-treated MCF-7 cells upregulate genes for secreted factors with different activities, a functional test was carried out to determine whether retinoid-treated MCF-7 cells express primarily pro-mitogenic or anti-mitogenic activity. In this assay, MCF-7 cells were mixed (1:1) with MDA-MB-231 breast carcinoma cells (insensitive to retinoids), which were transduced with Green Fluorescent Protein (GFP), providing the ability to distinguish and quantitate these cells by FACS analysis. The co-cultures were treated for five days with 100 nM RA. […] In contrast, retinoid treatment in coculture with MCF-7 decreased the number of MDA-MB-231 cells by about 25% (FIG. 4a). In another type of experiment, shown in FIG. 4b, MCF-7 cells were pre-treated for 8 days with RA, to allow for complete growth arrest and development of the senescent phenotype. The treated MCF-7 cells were collected by trypsinization and cocultured for three days with MDA-MB-231, in the presence or in the absence of RA. Coculture with RA-pretreated MCF-7 cells was sufficient to inhibit MDA-MB-231 cell growth by about 30%, as compared to coculture with untreated MCF-7 cells (FIG. 4B, left bar).

| Compound | MCF-7 cell growth (cell number) [1] | fraction of cells expressing SA-β-gal (senescent phenotype) [2] | growth of MDA-MB-231 cells ([3]; 100 nM RA alone, without MCF-7 cells, five days) | decrease of the number of MDA-MB-231 cells ([3]; 100 nM RA in 1:1 coculture with MCF-7, five days) | inhibition of MDA-MB-231 cell growth ([3]; coculture for three days with MCF-7 pre-treated 8 days with RA, vs coculture with untreated MCF-7) | effect of addition of RA to the coculture on MDA-MB-231 growth inhibition ([3]; coculture with RA-pretreated MCF-7, 100 nM RA present, three days) |
| --- | --- | --- | --- | --- | --- | --- |
| Cc1cc2c(cc1C1(c3ccc(C(=O)O)cn3)CC1)C(C)(C)CCC2(C)C [LGD1268] | did not inhibit cell growth; also recorded: modest but reproducible increase in cell growth | did not induce the senescent phenotype |  |  |  |  |
| CC1=C(/C=C/C(C)=C/C=C/C(C)=C/C(=O)O)C(C)(C)CCC1 [RA, all-trans retinoic acid] |  |  | no effect | about 25% | about 30% | no significant effect |
